This is an account of results in article PMC8020607 (Computational Biology and Chemistry, 2021).

The assay deals with T1, C5a (recombinant human C5a) (Homo sapiens, UniProt P01031).
T1 sequence (P01031 678-751 limits assumed): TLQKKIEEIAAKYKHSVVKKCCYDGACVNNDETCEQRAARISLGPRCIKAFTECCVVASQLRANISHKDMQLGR
Nature of the assay: intrinsic tyrosine fluorescence titration, non-linear fit. The assay is classed as binding.

As to `C[C@]12C=CC(=O)C=C1CC[C@@H]1[C@@H]2C(=O)C[C@@]2(C)[C@H]1CC[C@]2(O)C(=O)CO` [prednisone], the Kd is around 0.38 µM.
